In ChEMBL document CHEMBL1201862, “PubChem BioAssay data set” (2004):
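Interpolation was linear, between the two tested concentrations surrounding the appropriate level; five concentrations were tested over 48 hours in 96-well plates. GI50 marks 50% less growth.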 Calls of active or inactive are those of the source. Rule as the data show it: active = GI50 up to about 1.1 µM and inactive = higher.

Key:
Test in all cases: growth of human tumour cells (NCI), 48 h
[1] = system: 786-0
[2] = system: A498
[3] = system: A549
[4] = system: ACHN
[5] = system: BT-549
[6] = system: CAKI-1
[7] = system: CCRF-CEM
[8] = system: COLO 205
[9] = system: DU-145
[10] = system: EKVX
[11] = system: HCC 2998
[12] = system: HCT-116
[13] = system: HCT-15
[14] = system: HL-60
[15] = system: HOP-62
[16] = system: HOP-92
[17] = system: HT-29
[18] = system: Hs-578T
[19] = system: IGROV-1
[20] = system: K562
[21] = system: KM12
[22] = system: LOX IMVI
[23] = system: M14
[24] = system: MCF7
[25] = system: MDA-MB-231
[26] = system: MDA-MB-435
[27] = system: MDA-N
[28] = system: MOLT-4
[29] = system: Malme-3M
[30] = system: NCI-H226
[31] = system: NCI-H23
[32] = system: NCI-H460
[33] = system: NCI-H522
[34] = system: NCI/ADR-RES
[35] = system: OVCAR-3
[36] = system: OVCAR-4
[37] = system: OVCAR-5
[38] = system: OVCAR-8
[39] = system: PC-3
[40] = system: RPMI-8226
[41] = system: SF-268
[42] = system: SF-295
[43] = system: SF-539
[44] = system: SK-MEL-28
[45] = system: SK-MEL-2
[46] = system: SK-MEL-5
[47] = system: SK-OV-3
[48] = system: SN12C
[49] = system: SNB-19
[50] = system: SR
[51] = system: T47D
[52] = system: TK-10
[53] = system: U-251
[54] = system: UACC-257
[55] = system: UACC-62
[56] = system: UO-31
[57] = system: SNB-75
[58] = system: SW-620
[59] = system: RXF 393

C=CCOC(=O)c1c(C)[n+]([O-])c2cc(Cl)c(Cl)cc2[n+]1[O-]
GI50 [1]: 29.4 µM (inactive) | GI50 [2]: 27.5 µM (inactive) | GI50 [3]: 23 µM (inactive) | GI50 [4]: 23.6 µM (inactive) | GI50 [5]: 34.4 µM (inactive) | GI50 [6]: 19.2 µM (inactive) | GI50 [7]: 17.3 µM (inactive) | GI50 [8]: 17.9 µM (inactive) | GI50 [9]: 29.6 µM (inactive) | GI50 [10]: 18.8 µM (inactive) | GI50 [11]: 12.9 µM (inactive) | GI50 [12]: 17.8 µM (inactive) | GI50 [13]: 13.5 µM | GI50 [14]: 16.6 µM (inactive) | GI50 [15]: 25.5 µM (inactive) | GI50 [16]: 13.7 µM (inactive) | GI50 [17]: 18.2 µM (inactive) | GI50 [18]: 27.5 µM (inactive) | GI50 [19]: 4.62 µM (inactive) | GI50 [20]: 27.9 µM (inactive) | GI50 [21]: 29.7 µM (inactive) | GI50 [22]: 15.5 µM (inactive) | GI50 [23]: 18.2 µM (inactive) | GI50 [24]: 20.5 µM (inactive) | GI50 [25]: 24 µM (inactive) | GI50 [26]: 19.8 µM (inactive) | GI50 [27]: 20.6 µM (inactive) | GI50 [28]: 15.1 µM (inactive) | GI50 [29]: 28.5 µM (inactive) | GI50 [30]: 19.1 µM (inactive) | GI50 [31]: 14.4 µM (inactive) | GI50 [32]: 18.7 µM (inactive) | GI50 [33]: 12.4 µM (inactive) | GI50 [34]: 20.6 µM (inactive) | GI50 [35]: 20.1 µM (inactive) | GI50 [36]: 7.23 µM (inactive) | GI50 [37]: 30.4 µM (inactive) | GI50 [38]: 19.4 µM (inactive) | GI50 [39]: 31.6 µM (inactive) | GI50 [40]: 12.4 µM (inactive) | GI50 [41]: 14.7 µM (inactive) | GI50 [42]: 32.6 µM (inactive) | GI50 [43]: 21.8 µM (inactive) | GI50 [44]: 16.1 µM (inactive) | GI50 [45]: 13.6 µM (inactive) | GI50 [46]: 19 µM (inactive) | GI50 [47]: 28.8 µM (inactive) | GI50 [48]: 24.3 µM (inactive) | GI50 [49]: 74.8 µM (inactive) | GI50 [50]: 4.54 µM (inactive) | GI50 [51]: 18.9 µM (inactive) | GI50 [52]: 29.4 µM (inactive) | GI50 [53]: 31.8 µM (inactive) | GI50 [54]: 18.7 µM (inactive) | GI50 [55]: 20.2 µM (inactive) | GI50 [56]: 23.3 µM (inactive)

C=C(C)C(=O)O[C@H]1C/C(CO)=C/CCC(=C)C(OC(C)=O)[C@H]2OC(=O)C(=C)[C@H]12 (stereo not given in full)
GI50 [1]: 3.79 µM (inactive) | GI50 [2]: 18.7 µM (inactive) | GI50 [3]: 19.1 µM (inactive) | GI50 [4]: 8.45 µM (inactive) | GI50 [5]: 4.41 µM (inactive) | GI50 [6]: 9.84 µM (inactive) | GI50 [7]: 1.6 µM (inactive) | GI50 [8]: 4.5 µM (inactive) | GI50 [9]: 17 µM (inactive) | GI50 [10]: > 10 µM (inactive) | GI50 [11]: 12.5 µM (inactive) | GI50 [12]: 3.78 µM (inactive) | GI50 [13]: 2.3 µM | GI50 [14]: 3.09 µM (inactive) | GI50 [15]: 26.2 µM (inactive) | GI50 [17]: 5.86 µM (inactive) | GI50 [18]: 12.2 µM (inactive) | GI50 [19]: 17.5 µM (inactive) | GI50 [20]: 2.44 µM (inactive) | GI50 [21]: 14.7 µM (inactive) | GI50 [22]: 4.12 µM (inactive) | GI50 [23]: 3.49 µM (inactive) | GI50 [24]: 4.39 µM (inactive) | GI50 [25]: 11.1 µM (inactive) | GI50 [26]: 4.61 µM (inactive) | GI50 [27]: 4.49 µM (inactive) | GI50 [28]: 1.96 µM (inactive) | GI50 [29]: 3.96 µM (inactive) | GI50 [30]: 40.8 µM (inactive) | GI50 [31]: 10.3 µM (inactive) | GI50 [32]: 17.1 µM (inactive) | GI50 [33]: 3.45 µM (inactive) | GI50 [34]: 4.7 µM (inactive) | GI50 [35]: 6.44 µM (inactive) | GI50 [37]: 38.5 µM (inactive) | GI50 [38]: 16.2 µM (inactive) | GI50 [39]: 14.6 µM (inactive) | GI50 [40]: 1.82 µM (inactive) | GI50 [41]: 2 µM (inactive) | GI50 [42]: 23.7 µM (inactive) | GI50 [43]: 13.6 µM (inactive) | GI50 [44]: 7.76 µM (inactive) | GI50 [45]: 7.18 µM (inactive) | GI50 [46]: 14.7 µM (inactive) | GI50 [47]: 44.9 µM (inactive) | GI50 [48]: 13.4 µM (inactive) | GI50 [49]: 28.7 µM (inactive) | GI50 [57]: 2.35 µM (inactive) | GI50 [50]: 3.51 µM (inactive) | GI50 [58]: 3.87 µM (inactive) | GI50 [51]: 6.95 µM (inactive) | GI50 [52]: > 10 µM (inactive) | GI50 [53]: 17.8 µM (inactive) | GI50 [54]: 10 µM (inactive) | GI50 [55]: 10.2 µM (inactive) | GI50 [56]: 5.19 µM (inactive)

Cc1cccc(Nc2nc3ccccc3nc2NS(=O)(=O)c2ccc(N)cc2)c1
GI50 [1]: 30 µM (inactive) | GI50 [3]: 23.8 µM (inactive) | GI50 [4]: 32.2 µM (inactive) | GI50 [5]: 9.42 µM (inactive) | GI50 [6]: 30.7 µM (inactive) | GI50 [7]: 15.2 µM (inactive) | GI50 [8]: 21.1 µM (inactive) | GI50 [9]: 37.2 µM (inactive) | GI50 [10]: 54.3 µM (inactive) | GI50 [11]: 30.9 µM (inactive) | GI50 [12]: 33.1 µM (inactive) | GI50 [13]: 34.1 µM | GI50 [14]: 28.1 µM (inactive) | GI50 [15]: 25.7 µM (inactive) | GI50 [16]: 40.3 µM (inactive) | GI50 [17]: 48.3 µM (inactive) | GI50 [18]: 49.5 µM (inactive) | GI50 [19]: 33 µM (inactive) | GI50 [20]: 25.2 µM (inactive) | GI50 [21]: 26.7 µM (inactive) | GI50 [22]: 52.1 µM (inactive) | GI50 [23]: 37.8 µM (inactive) | GI50 [24]: 24.4 µM (inactive) | GI50 [25]: 36.3 µM (inactive) | GI50 [26]: 38.6 µM (inactive) | GI50 [27]: 45.9 µM (inactive) | GI50 [28]: 11.7 µM (inactive) | GI50 [29]: 78.7 µM (inactive) | GI50 [30]: 60.4 µM (inactive) | GI50 [31]: 5.61 µM (inactive) | GI50 [32]: 32.5 µM (inactive) | GI50 [33]: 18 µM (inactive) | GI50 [34]: 36.1 µM (inactive) | GI50 [35]: 38.5 µM (inactive) | GI50 [36]: 10 µM (inactive) | GI50 [37]: > 100 µM (inactive) | GI50 [38]: 39.6 µM (inactive) | GI50 [39]: 29.6 µM (inactive) | GI50 [40]: 23.4 µM (inactive) | GI50 [59]: 18.5 µM (inactive) | GI50 [41]: 63.7 µM (inactive) | GI50 [42]: 34.8 µM (inactive) | GI50 [43]: 19.1 µM (inactive) | GI50 [44]: 27.7 µM (inactive) | GI50 [45]: 24.9 µM (inactive) | GI50 [46]: 35.5 µM (inactive) | GI50 [47]: 54.8 µM (inactive) | GI50 [48]: 36.6 µM (inactive) | GI50 [49]: 31.3 µM (inactive) | GI50 [57]: 52.8 µM (inactive) | GI50 [50]: 19.8 µM (inactive) | GI50 [58]: 17.6 µM (inactive) | GI50 [51]: 34.5 µM (inactive) | GI50 [52]: 32.5 µM (inactive) | GI50 [53]: 20.7 µM (inactive) | GI50 [54]: 41.4 µM (inactive) | GI50 [55]: 38.4 µM (inactive) | GI50 [56]: 16.2 µM (inactive)
